Values quoted from earlier work as cited in US6562363B1, “Bioadhesive compositions and methods for topical administration of active agents” (Noven Pharmaceuticals, Inc., priority 1997, dated 2003).

Tests used:
[1] = application to skin or mucous membranes; for Duration of Effect: duration of anesthetic effect; for Peak Effect: time to peak anesthetic effect
[2] = application to skin or mucous membranes

| Compound | Duration of Effect [1] [min] | Peak Effect [1] [min] | Maximum Adult Dose [2] [mg] |
| --- | --- | --- | --- |
| CCOC(=O)c1ccc(N)cc1 [Benzocaine] | 30 to 60 | 1 | 5000 |
| CCCCOc1cc(C(=O)NCCN(CC)CC)c2ccccc2n1 [Dibucaine] | 120 to 240 | <15 | 25 |
| COC(=O)[C@H]1[C@@H](OC(=O)c2ccccc2)C[C@@H]2CC[C@H]1N2C [Cocaine] | – | – | 50 |
| CCCCOc1ccc(C(=O)CCN2CCCCC2)cc1 [Dyclonine] | <60 | <10 | 100 |
| CCN(CC)CC(=O)Nc1c(C)cccc1C [Lidocaine] | – | – | 750 |
| CCCCNc1ccc(C(=O)OCCN(C)C)cc1 [Tetracaine] | 30 to 60 | 3 to 8 | 50 |
